We go through 4 compounds from US20250368649A1, “TETRAHYDROPYRIDOPYRIMIDINE PAN-KRAS INHIBITORS” (Mirati Therapeutics, Inc., priority 2022, published 2025).

One assay concerns the target KRas G12R (Homo sapiens, UniProt P01116, G12R). The assay is described as follows: biochemical. The settings on record: Binding to KRas (IC50 nM) G12R, TR-FRET displacement, KRas G12R. (TR-FRET usually uses a lanthanide donor and a delayed reading to cut background.)
A further assay has as its system H727 cells. Kind of assay: Inhibition of KRas-mediated phosphorylation of ERK (Cisbio HTRF pERK), H727 cells. It is filed as cell-based. The settings on record: Homo sapiens; for IC50: NCI-H727, 3 h, 3 hr compound incubation, Cisbio pERK HTRF; for inhibition at 0.1 µM: NCI-H727, single point at 100 nM, 3 hrs compound incubation.
For another assay, the system named is ASPC1 cells. The assay is described as follows: Inhibition of KRas-mediated phosphorylation of ERK (Cisbio HTRF pERK), ASPC1 cells. The settings on record: Homo sapiens, AsPC-1 cells; for IC50: ASPC1, 3 h, 3 hr compound incubation, Cisbio pERK HTRF; for inhibition at 0.1 µM: ASPC1, single point at 100 nM, 3 hrs compound incubation. Type of assay: cell-based.
Another assay relates to A549 cells. Kind of assay: Inhibition of KRas-mediated phosphorylation of ERK (Cisbio HTRF pERK), A549 cells. Type of assay: cell-based. The following applies: Homo sapiens, single point at 100 nM, 3 hrs compound incubation.
A further assay deals with KRas G12V (Homo sapiens, UniProt P01116, G12V). The assay is described as follows: biochemical. The following applies: Binding to KRas (IC50 nM) G12V, TR-FRET displacement, KRas G12V.
KRas G12V, sequence (P01116 1-169 isoform P01116-2 G12V): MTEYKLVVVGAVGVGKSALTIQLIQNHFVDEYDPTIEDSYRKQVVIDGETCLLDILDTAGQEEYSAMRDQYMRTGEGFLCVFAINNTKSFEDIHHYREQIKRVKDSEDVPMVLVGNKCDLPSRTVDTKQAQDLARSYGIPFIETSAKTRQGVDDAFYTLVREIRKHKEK
In another assay the test system is HCT116 cells. The assay is described as follows: Inhibition of KRas-mediated phosphorylation of ERK (Cisbio HTRF pERK), HCT116 cells. It is filed as cell-based. The settings on record: Homo sapiens, HCT-116, single point at 100 nM, 3 hrs compound incubation.
Another assay concerns H358 cells. Kind of assay: Inhibition of KRas-mediated phosphorylation of ERK (Cisbio HTRF pERK), H358 cells. It is filed as cell-based. The following applies: Homo sapiens, NCI-H358, single point at 100 nM, 3 hrs compound incubation.
The target in another assay is KRas G12D (Homo sapiens, UniProt P01116, G12D). Kind of assay: biochemical. The settings on record: Binding to KRas (IC50 nM) G12D, TR-FRET displacement, KRas G12D.
KRas G12D, sequence (P01116 1-169 isoform P01116-2 G12D): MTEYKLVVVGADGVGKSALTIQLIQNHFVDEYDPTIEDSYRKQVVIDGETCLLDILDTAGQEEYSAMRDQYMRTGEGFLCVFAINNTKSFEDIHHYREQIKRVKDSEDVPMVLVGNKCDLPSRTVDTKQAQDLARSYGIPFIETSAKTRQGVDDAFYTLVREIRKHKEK
For a further assay, the system named is H460 cells. The assay is described as follows: Inhibition of KRas-mediated phosphorylation of ERK (Cisbio HTRF pERK), H460 cells. Type of assay: cell-based. The following applies: Homo sapiens, NCI-H460, single point at 100 nM, 3 hrs compound incubation.

KRas G12R, sequence (P01116 1-169 isoform P01116-2 G12R): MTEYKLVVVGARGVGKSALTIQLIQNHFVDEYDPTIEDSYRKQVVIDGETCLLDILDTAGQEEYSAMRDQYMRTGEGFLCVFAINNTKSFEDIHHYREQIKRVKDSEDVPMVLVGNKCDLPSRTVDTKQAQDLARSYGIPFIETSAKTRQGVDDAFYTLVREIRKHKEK

One may read the IC50 as the concentration at which inhibition is half-maximal. Low readings indicate greater potency in that assay, high ones weaker potency in that assay. In general, inhibition refers to the relative decrease from the control value, in per cent. In the case of `CCc1c(F)ccc2cc(O)cc(N3CCc4c(nc(OC[C@@]56CCCN5C[C@H](F)C6)nc4N4CCCn5nc(C(=O)N6CC7CNC(C7)C6)cc5C4)C3)c12` (stereo partly drawn) [Example 234, 3,6-diazabicyclo[3.2.1]octan-3-yl(5-(7-(8-ethyl-7-fluoro-3-hydroxynaphthalen-1-yl)-2-(((2R,7aS)-2-fluorohexahydro-1H-pyrrolizin-7a-yl)methoxy)-5,6,7,8-tetrahydropyrido[3,4-d]pyrimidin-4-yl)-5,6,7,8-tetrahydro-4H-pyrazolo[1,5-a][1,4]diazepin-2-yl)methanone], the IC50 was 4 nM at KRas G12R; 1560 nM with H727 cells; 52 nM in the assay on ASPC1 cells; less than 2 nM on KRas G12V; less than 2 nM on KRas G12D. For the same compound, the inhibition at 0.1 µM in the assay with H727 cells is 22%; with ASPC1 cells, 34%; in the assay on A549 cells it was 9%; in the assay on HCT116 cells, 14%; in the assay on H358 cells it was -28%; in the assay with H460 cells, -4%.

As to `CCc1c(F)ccc2cc(O)cc(N3CCc4c(nc(OC[C@@]56CCCN5C[C@H](F)C6)nc4N4CCCn5nc(CN(C)S(=O)(=O)NC)cc5C4)C3)c12` [Example 237, 7-(8-ethyl-7-fluoro-3-hydroxy-1-naphthyl)-2-(((2R,7aS)-2-fluorotetrahydro-1H-pyrrolizin-7a(5H)-yl)methoxy)-4-(2-((methylsulfamoyl)methylamino)methyl-7,8-dihydro-4H-pyrazolo[1,5-a][1,4]diazepin-5(6H)-yl)-6,8-dihydro-5H-pyrido[3,4-d]pyrimidine], the 50% inhibitory concentration (IC50) on KRas G12R was 19 nM; in the assay with H727 cells, 1640 nM; in the assay on ASPC1 cells it was 639 nM; on KRas G12V, 13 nM; at KRas G12D, 7 nM. Further, the inhibition at 0.1 µM with H727 cells was 22%; in the assay with ASPC1 cells it was 10%; with A549 cells, 30%; with HCT116 cells it was 5%; in the assay on H358 cells, 7%; in the assay with H460 cells, -16%.

For the compound `CCc1c(F)ccc2cc(O)cc(N3CCc4c(nc(OC[C@@]56CCCN5C[C@H](F)C6)nc4N4CCCn5nc(N(C)S(N)(=O)=O)cc5C4)C3)c12` [Example 291, 7-(8-ethyl-7-fluoro-3-hydroxy-1-naphthyl)-2-(((2R,7aS)-2-fluorotetrahydro-1H-pyrrolizin-7a(5H)-yl)methoxy)-4-(2-((sulfamoyl)methylamino)-7,8-dihydro-4H-pyrazolo[1,5-a][1,4]diazepin-5(6H)-yl)-6,8-dihydro-5H-pyrido[3,4-d]pyrimidine], the half-inhibitory concentration (IC50) at KRas G12R was determined as 20 nM; at KRas G12V it was 21 nM; on KRas G12D, 8 nM. For the same compound, the inhibition at 0.1 µM worked out at 23% with A549 cells, 12% in the assay on HCT116 cells, 20% with H358 cells and 4% in the assay on H460 cells.

As to `CCc1c(F)ccc2cc(O)cc(N3CCc4c(nc(OC[C@@]56CCCN5C[C@H](F)C6)nc4N4CCCCC(CC(=O)N(C)C)C4)C3)c12` (stereo partly drawn) [Example 345, 2-(1-(7-(8-ethyl-7-fluoro-3-hydroxynaphthalen-1-yl)-2-(((2R,7aS)-2-fluorohexahydro-1H-pyrrolizin-7a-yl)methoxy)-5,6,7,8-tetrahydropyrido[3,4-d]pyrimidin-4-yl)azepan-3-yl)-N,N-dimethylacetamide], the IC50 on KRas G12R was less than 2 nM; in the assay with ASPC1 cells it was 1640 nM; at KRas G12V, 4 nM; at KRas G12D, 6 nM. For the same compound, the inhibition at 0.1 µM in the assay on A549 cells is 12%; with HCT116 cells, 5%; in the assay on H358 cells it was 13%; with H460 cells, -9%.
